The source of these data is article PMC10058949, “Effect of N-Terminal Peptide Modifications on In Vitro and In Vivo Properties of ^177Lu-Labeled Peptide Analogs Targeting CCK2R” (Pharmaceutics, 2023).

Like-named read-outs stand apart in the source and are kept apart here. Non-standard residues stand in square brackets, D forms with d. Residues, ends and D or L forms follow the SMILES beside them. *: point of attachment. DOTA = O=C(O)CN1CCN(CC(=O)O)CCN(CC(=O)*)CCN(CC(=O)O)CC1; 1Nal = N[C@@H](Cc1cccc2ccccc12)C(=O)O; NMeNle = CCCC[C@H](NC)C(=O)O

Data set [1] is described as follows: Octanol/PBS distribution coefficient (logD7.4). It counts as physicochemical. Conditions: pH 7.4. As to the method:
(§1) The stability studies with the ^177Lu-labeled peptide analogs were carried out at a concentration of 0.5 nmol peptide/mL in fresh human serum (n = 2) for up to 24 h. A mixture of 0.05 nmol/mL of the radiolabeled peptides in PBS and octanol (1/1, v/v) was used to evaluate the octanol/PBS distribution coefficient (logD7.4; n = 8). To determine the protein binding in human serum by Sephadex G-50 size-exclusion chromatography (GE Healthcare Illustra, Little Chalfont, UK), a 25 µL serum sample was used for different time points after incubation. All steps were performed according to previously published protocols.

In another data set the test system is human serum proteins. The data set can be described thus: Protein binding in human serum by Sephadex G-50 size-exclusion chromatography. The class given is in vitro ADME. On the procedure:
as §1
Background: In gel filtration, larger molecules generally elute earlier.

The nature of data set [2]: Biodistribution 4 h p.i. in A431-CCK2R/A431-mock xenografted BALB/c nude mice. The class given is in vivo. Conditions: female, BALB/c nude, mouse, in vivo, iv, 20 pmol, total radioactivity. On the procedure: (§2) Then, after 7–11 days, when visible tumor xenografts were formed, groups of 5 mice were injected intravenously via a lateral tail vein with ~0.5 MBq of radiolabeled peptide, corresponding to 20 pmol of peptide, in a total volume of ~150 µL in PBS/0.5% BSA. Using an additional mouse per group, a blocking study was performed by co-injecting a 1000-fold molar excess of the respective peptide analog (20 nmol) together with the radiolabeled peptide. For quantification, a 1:1, 1:10 and 1:50 standard was prepared using aliquots of the injection solution mixed with PBS/0.5% BSA. Mice were euthanized by cervical dislocation 4 h after injection. Subsequently, a blood sample was collected, and different tissues were dissected. All samples, as well as the rest of the body were weighed, and the activity measured in the γ-counter together with the standard. Results were expressed as percentage of injected activity per gram of tissue (%IA/g).

A short description of data set [3]: Biodistribution blocking experiment with 1000-fold excess of non-radiolabeled peptide. It counts as in vivo, mice. The note with it: female, BALB/c nude, mouse, in vivo, iv, total radioactivity, blocking. On the procedure: as §2
In a further data set the target is T1, CCK2R (Homo sapiens, UniProt P32239).
T1 construct: expressed in transfected cells; host or cells: A431 human epidermoid carcinoma cells (A431-CCK2R, from Dr. Luigi Aloj)
T1 sequence (P32239 1-447): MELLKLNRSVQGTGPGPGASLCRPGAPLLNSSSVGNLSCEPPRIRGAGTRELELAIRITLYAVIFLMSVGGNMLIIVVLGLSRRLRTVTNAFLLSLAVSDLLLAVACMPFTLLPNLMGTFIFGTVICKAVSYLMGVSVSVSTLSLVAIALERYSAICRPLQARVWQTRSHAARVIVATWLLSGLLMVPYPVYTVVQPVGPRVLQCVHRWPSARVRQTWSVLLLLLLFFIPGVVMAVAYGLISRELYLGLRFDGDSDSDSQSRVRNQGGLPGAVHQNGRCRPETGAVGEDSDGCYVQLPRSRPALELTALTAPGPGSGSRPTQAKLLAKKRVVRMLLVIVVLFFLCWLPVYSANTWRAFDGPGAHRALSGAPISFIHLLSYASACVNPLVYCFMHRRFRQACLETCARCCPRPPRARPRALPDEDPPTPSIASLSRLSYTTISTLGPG
In words: Competition assay against [125I][3-iodo-Tyr12,Leu15]gastrin-I on A431-CCK2R cells. The class given is binding.

With `CCCC[C@@H](C(=O)N[C@@H](CC(=O)O)C(=O)N[C@@H](Cc1cccc2ccccc12)C(N)=O)N(C)C(=O)[C@H](Cc1c[nH]c2ccccc12)NC(=O)CNC(=O)[C@H](Cc1ccc(O)cc1)NC(=O)[C@H](C)NC(=O)[C@@H](CCC(=O)O)NC(=O)[C@@H](CCC(=O)O)NC(=O)[C@@H](CCC(=O)O)NC(=O)[C@@H](CCC(=O)O)NC(=O)[C@@H](CCC(=O)O)NC(=O)[C@@H](CCC(=O)O)NC(=O)CN1CCN(CC(=O)O)CCN(CC(=O)O)CCN(CC(=O)O)CC1` [[^177Lu]Lu-1, metal not drawn] ({DOTA}-[dE][dE][dE][dE][dE][dE]AYGW[NMeNle]D[1Nal]-NH2), in data set [1], the logD (commonly lipophilicity at a set pH, counting ionised and neutral species) is -4.18 ± 0.24. In addition, the “change in binding to human serum proteins compared to [177Lu]Lu-DOTA-MGS5” value in the data set with human serum proteins is “increased by a factor of two”. Moreover, the tissue uptake (commonly the percentage of the injected dose found per gram of tissue) at 4 h came to 22.2 ± 6.23 %ID/g in data set [2] (uptake in A431-CCK2R xenografts); 0.14 ± 0.04 %ID/g in data set [2] (uptake in A431-mock xenografts); 0.02 %ID/g in data set [2] (uptake in blood); 0.21 ± 0.05 %ID/g in data set [2] (uptake in femur); 0.06 ± 0.01 %ID/g in data set [2] (uptake in heart); 0.42 ± 0.07 %ID/g in data set [2] (uptake in intestine). The tissue uptake at 4 h in data set [2] (uptake in kidneys) came out at 21.6 ± 2.11 %ID/g; in data set [2] (uptake in liver) it was 2.48 ± 0.39 %ID/g; in data set [2] (uptake in lung), 0.12 ± 0.04 %ID/g; in data set [2] (uptake in muscle), 0.04 ± 0.02 %ID/g; in data set [2] (uptake in pancreas), 1.25 ± 0.27 %ID/g; in data set [2] (uptake in spleen), 1.86 ± 0.62 %ID/g. Besides, the tissue uptake at 4 h in data set [2] (uptake in stomach) was determined as 4.77 ± 1.1 %ID/g; in data set [3] (uptake in A431-CCK2R xenograft), 0.45 %ID/g; in data set [3] (uptake in A431-mock xenograft), 0.12 %ID/g; in data set [3] (uptake in blood) it was 0.03 %ID/g; in data set [3] (uptake in femur), 0.18 %ID/g; in data set [3] (uptake in heart) it was 0.05 %ID/g. Also, the results for the tissue uptake at 4 h in data set [3] (uptake in lung), in data set [3] (uptake in pancreas) and in data set [3] (uptake in stomach) were 0.06 %ID/g, 0.05 %ID/g and 0.06 %ID/g, respectively.

For the compound `CCCC[C@@H](C(=O)N[C@@H](CC(=O)O)C(=O)N[C@@H](Cc1cccc2ccccc12)C(N)=O)N(C)C(=O)[C@H](Cc1c[nH]c2ccccc12)NC(=O)CNC(=O)[C@H](Cc1ccc(O)cc1)NC(=O)[C@H](C)NC(=O)[C@@H](CCC(=O)O)NC(=O)[C@@H](CCC(=O)O)NC(=O)[C@@H](CCC(=O)O)NC(=O)[C@@H](CCC(=O)O)NC(=O)[C@@H](CCC(=O)O)NC(=O)[C@@H](CCC(=O)O)NC(=O)CN1CCN(CC(=O)O)CCN(CC(=O)O)CCN(CC(=O)O)CC1` [Peptide 1, DOTA-(DGlu)6-Ala-Tyr-Gly-Trp-(N-Me)Nle-Asp-1Nal-NH2] ({DOTA}-[dE][dE][dE][dE][dE][dE]AYGW[NMeNle]D[1Nal]-NH2), the IC50 – broadly, the concentration that gives 50% inhibition – at CCK2R was found to be 0.18 ± 0.02 nM.

As for `CCCC[C@@H](C(=O)N[C@@H](CC(=O)O)C(=O)N[C@@H](Cc1cccc2ccccc12)C(N)=O)N(C)C(=O)[C@H](Cc1c[nH]c2ccccc12)NC(=O)CCNC(=O)CC(O)CNC(=O)CC(O)CNC(=O)CN1CCN(CC(=O)O)CCN(CC(=O)O)CCN(CC(=O)O)CC1` (stereo partly drawn) [Peptide 2, DOTA-(GABOB)2-βAla-Trp-(N-Me)Nle-Asp-1Nal-NH2], the IC50 on CCK2R (A431-CCK2R cells, 1 h room temperature, n = 3, read-out: IC50) was found to be 0.24 nM.
